Assay results from US7572923B2, “Indirubin derivatives having anticancer property against human cancer cell line” (Anygen Co., Ltd., priority 2004, dated 2009).

Columns and labels:
human cancer cell line = experiment: Inhibition of cancer cell line proliferation, overall conclusion; format: cell-based; details: conclusion from Table 2
Protocol: (§1) For measuring the proliferation inhibition by indirubin compound, the method disclosed in K. Likhitwitayawuid et al. Journal. Nat. Prod. […] Followings are simple description of this method. The cancer cell line is diluted into 5×10^4 cfu/ml. Then, various concentrations of test compounds are added to 96 well microtiter plate containing diluted cell line. After incubating test plate for 3˜4 days at 37° C., the test plate is dried and Tris-base is added. Then, using ELISA plate detector, the absorbance at 515 nm is measured. IC50 is measured by non-linear regression method.

[1] = test system: human stomach cancer cell line (SNU-638); experiment: Inhibition of cancer cell line proliferation, SNU-638; format: cell-based; details: 96 h, 3˜4 days incubation, absorbance at 515 nm
Protocol: as §1

[2] = test system: human colon cancer cell line (Col2); experiment: Inhibition of cancer cell line proliferation, Col2; format: cell-based; details: 96 h, 3˜4 days incubation, absorbance at 515 nm
Protocol: as §1

[3] = test system: human abdominal cavity cancer cell line (HT 1080); experiment: Inhibition of cancer cell line proliferation, HT 1080; format: cell-based; details: HT-1080, 96 h, HT108, 3˜4 days incubation, absorbance at 515 nm
Protocol: as §1

[4] = test system: human leukemia cell line (HL-60); experiment: Differentiation with low concentration 1,25-(OH)2D3 or ATRA, NBT reduction method; format: cell-based
Protocol: (§2) For measuring the differentiation inducing effect to acute bone merrow leukemia cell line (HL-60) by indirubin AGM compound, NBT (nitroblue tetrazolium) reduction reaction method is employed. The leukemia cell line is diluted into 2×10^5 cfu/ml. After treating 20 μM and 1 μM concentrations of test compounds, test plate is incubated for 3 days at 37° C. in 5% CO2 incubator. Incubated cells are washed with phosphate buffered saline (PBS). Then, they are further incubated in PBS solution containing 0.1% NBT and 200 ng/ml of PMA (phorbol 12-myristate 13-acetate) for 30 minutes at 37° C. Incubated cells are centrifuged and collected cells are washed with PBS solution. Using cell number counter, differentiated cells forming nitroblue formazan among total cells are counted.
Next, we test if AGM compound of present invention can synergically induce the differentiation of acute bone merrow leukemia cell line when it is treated with low concentration of 1,25-dihydroxyvitamin D3[1,25-(OH)2D3] or all-trans retinoic acid (ATRA) known as differentiation inducing agent. […] […] As a positive control, conventional differentiation inducing agent is used.

[5] = test system: human lung cancer cell line (A549); experiment: Inhibition of cancer cell line proliferation, A549; format: cell-based; details: 96 h, 3˜4 days incubation, absorbance at 515 nm
Protocol: as §1

[6] = test system: leukemia cell line (HL-60); experiment: Differentiation inducing effect, NBT reduction method; format: cell-based, human; details: for % of Differentiation: 3 days
Protocol: as §2, with “After treating 20 μM and 1 μM concentrations of test compounds, test plate is incubated for 3 days at 37° C. in 5% CO2 incubator.” left out

[7] = test system: human leukemia cell line (HL-60); experiment: Inhibition of cancer cell line proliferation, HL-60; format: cell-based; details: HL-60, 96 h, HL60, 3˜4 days incubation, absorbance at 515 nm
Protocol: as §1

[8] = test system: human cell line (HT 1080); experiment: Inhibition of cancer cell line proliferation, HT 1080; format: cell-based; details: HT-1080, 96 h, read-out: IC50 HT108
Protocol: as §1

[9] = 1 μM compound with 5 nM of 1,25-(OH)2D3
[10] = 1 μM compound with 50 nM of ATRA

Row | Compound | IC50 [1] [µM] | IC50 [2] [µM] | IC50 [3] [µM] | IC50 [5] [µM] | IC50 [7] [µM] | IC50 [8] [µM] | inhibitor against proliferation of human cancer cell line (human cancer cell line) | % of Differentiation, 1,25-(OH)2D3 [4, 9] [%] | % of Differentiation, all-trans RA [4, 10] [%] | % of Differentiation ([6]; 1 μM compound) [%] | cytotoxicity [4] | induction of differentiation with conventional differentiation inducing agent ([4]; 0.2 μM) | % of Differentiation, 1,25-(OH)2D3 ([4]; 0.2 μM compound with 5 nM of 1,25-(OH)2D3) [%] | % of Differentiation, all-trans RA ([4]; 0.2 μM compound with 50 nM of ATRA) [%] | % of Differentiation ([6]; 0.2 μM compound) [%] | % of Differentiation ([6]; 20 μM compound) [%] | induction of differentiation ([6]; at 20 μM concentration)
1 | O=C1Nc2ccc([N+](=O)[O-])cc2C1=C1Nc2ccc(Br)cc2C1=NO [AGM023, 5-bromo-5′-nitro-1H,1′H-[2,3′] biindolylidene-3,2′-dione 3-oxime] | 12.1 | 44.2 | 4.41 | 23.2 | 69.3 | – | effective inhibitor | – | – | – | some cytotoxicity | high induction of differentiation | 89.76 ± 0.88 | 90.85 ± 0.36 | 18.38 ± 0.27 | – | –
2 | Cc1cc(C)c2c(c1)C(=C1Nc3ccccc3C1=O)C(=O)N2 [AGM027, 5′,7′-dimethyl-1H,1′H-[2,3′] biindolylidene-3,2′-dione] | > 100 | > 100 | – | > 100 | > 100 | > 100 | – | 21.74 ± 1.90 | 43.19 ± 1.73 | 9.45 ± 0.92 | – | – | – | – | – | 4.75 ± 0.41 | –
3 | Cc1cc(Cl)cc2c1NC(=O)C2=C1Nc2ccccc2C1=O [AGM028, 5′-chloro-7′-methyl-1H,1′H-[2,3′] biindolylidene-3,2′-dione] | > 100 | > 100 | – | > 100 | > 100 | > 100 | – | 35.22 ± 0.55 | 55.57 ± 1.11 | 8.85 ± 2.20 | – | – | – | – | – | 0.70 ± 0.16 | –

Further lines, with some results ahead:

Row | IC50 [1] [µM] | IC50 [2] [µM] | IC50 [3] [µM] | IC50 [5] [µM] | IC50 [7] [µM] | IC50 [8] [µM] | Compound | inhibitor against proliferation of human cancer cell line (human cancer cell line) | % of Differentiation, 1,25-(OH)2D3 [4, 9] [%] | % of Differentiation, all-trans RA [4, 10] [%] | % of Differentiation ([6]; 1 μM compound) [%] | cytotoxicity [4] | induction of differentiation with conventional differentiation inducing agent ([4]; 0.2 μM) | % of Differentiation, 1,25-(OH)2D3 ([4]; 0.2 μM compound with 5 nM of 1,25-(OH)2D3) [%] | % of Differentiation, all-trans RA ([4]; 0.2 μM compound with 50 nM of ATRA) [%] | % of Differentiation ([6]; 0.2 μM compound) [%] | % of Differentiation ([6]; 20 μM compound) [%] | induction of differentiation ([6]; at 20 μM concentration)
4 | 6.22 | 16.8 | 10.8 | 12.1 | 4.81 | – | O=C1Nc2ccc(Cl)cc2C1=C1Nc2ccccc2C1=NO [AGM014, 5′-chloro-1H,1′H-[2,3′] biindolylidene-3,2′-dione 3-oxime] | effective inhibitor | 21.72 ± 1.22 | 72.40 ± 3.05 | 40.97 ± 1.19 | – | – | – | – | – | – | –
5 | > 100 | > 100 | – | > 100 | > 100 | > 100 | O=C1Nc2ccc(I)cc2C1=C1Nc2ccccc2C1=O [AGM026, 5′-iodo-1H,1′H-[2,3′] biindolylidene-3,2′-dione] | – | 44.43 ± 0.09 | 60.33 ± 0.51 | 29.84 ± 1.12 | – | – | – | – | – | 22.23 ± 0.60 | –
6 | 21.1 | 31.2 | – | 33.2 | 59.3 | 5.41 | Nc1ccc2c(c1)C(=C1Nc3ccccc3C1=O)C(=O)N2 [AGM029, 5′-amino-1H,1′H-[2,3′] biindolylidene-3,2′-dione] | effective inhibitor | 79.03 ± 0.55 | 78.81 ± 0.77 | 45.05 ± 0.59 | – | – | – | – | – | – | excellently induces the differentiation
